In patent publication US20220135622A1, “ANTIBACTERIAL PEPTIDES AND METHODS OF USE” (priority 2019, published 2022):
≈ marks a conversion by molar mass, not a printed value. Read-outs that look alike come from different tables or passages of the source. Square brackets hold non-standard residues; d marks the D form. Peptide text beside a SMILES is read from it. Bip = N[C@@H](Cc1ccc(-c2ccccc2)cc1)C(=O)O; NMeM = CN[C@@H](CCSC)C(=O)O; hSer = N[C@@H](CCO)C(=O)O; NMeA = CN[C@@H](C)C(=O)O; Dap = NC[C@H](N)C(=O)O

Legend:
E. coli BW25113 = type: cell-based, Escherichia coli
Description: (§1) Bacterial growth conditions. LB or Mueller Hinton II cation-adjusted broth (MHB II, BBL 212322) was prepared according to manufacturer's instructions and supplemented with arabinose at 0.02% for overnight growth or at indicated concentrations in the description of the figures. Bacterial cultures were grown at 37° C. When appropriate, media was supplemented with kanamycin (50 μg/mL), carbenicillin (50 μg/mL), chloramphenicol (12.5 or 25 μg/mL), hygromycin (200 μg/mL), and/or gentamicin (10 μg/mL).
(§2) Peptide sensitivity and MIC assays. Lyophilized peptides (Smartox Biotechnology, CPC Scientific. ABclonal) were solubilized to 10 mM in Tris buffer, pH 8, prior to making a 2-fold dilution series in MHBII cation adjusted broth with highest final assay concentration of 400-800 μM. Bacteria were grown to log phase and added to final OD600˜0.001. The final EDTA concentration was 0.5 mM for E. coli strains and 0.125 mM for USA300. The final volume of 10 μL/well in a 384 well black, clear bottom plate (Corning) was spun <1 min at <250×g and then incubated at 37° C. After 4 h, an equal volume (10 μL) of BacTiter-Glo™ (Promega) was added to each well and luminescence was read after 5 min on an EnVision plate reader (PerkinElmer). To measure the minimal inhibitory concentrations (MICs), bacteria from fresh overnight plates or log phase cultures were diluted with or without EDTA and peptides as described above to final OD600˜0.0002. Plates were incubated at 37° C. for 20 h before measuring OD600 with an EnVision plate reader.

A. baumannii = type: cell-based, Acinetobacter baumannii
Description: as §1, §2

K. pneumoniae = type: cell-based, Klebsiella pneumoniae
Description: as §1, §2

P. aeruginosa = type: cell-based, Pseudomonas aeruginosa
Description: as §1, §2

E. coli imp4213 = experiment: MIC assay, E. coli imp4213; type: cell-based, Escherichia coli; settings: Table 7
Description: as §1, §2

S. aureus USA300 = experiment: MIC assay, S. aureus USA300; type: cell-based, Staphylococcus aureus; settings: Table 7
Description: as §1, §2

CSCC[C@H](NC(=O)[C@H](CN)NC(=O)[C@H](CCSC)NC(=O)[C@@H]1CCCN1C(=O)[C@H](Cc1ccc(O)cc1)NC(C)=O)C(=O)N[C@@H](CCCNC(=N)N)C(=O)N[C@@H](CCCNC(=N)N)C(=O)N[C@@H](Cc1ccc(-c2ccccc2)cc1)C(=O)N[C@@H](CC(C)C)C(=O)N[C@@H](CCC(=O)O)C(=O)N[C@@H](CCCCN)C(=O)N[C@@H](Cc1c[nH]c2ccccc12)C(=O)NCC(=O)N[C@@H](CC(C)C)C(=O)N[C@@H](CC(C)C)C(=O)N[C@@H](CCCNC(=N)N)C(N)=O [compound 82] (Ac-YPM[Dap]MRR[Bip]LEKWGLLR-NH2)
MIC E. coli BW25113 (E. coli BW25113; Table 8): 100.0 µM (≈ 220 µg/mL) | MIC A. baumannii (A. baumannii; Table 8): 12.5 µM (≈ 27.5 µg/mL) | MIC K. pneumoniae (K. pneumoniae; Table 8): 50.0 µM (≈ 110 µg/mL) | MIC R. aeruginosa (P. aeruginosa; Table 8): 50.0 µM (≈ 110 µg/mL)

Ac-RPMTARRFLAKRGL-NH2 [compound 210]
MIC E. coli BW25113 (E. coli BW25113; Table 8): 200.0 µM | MIC A. baumannii (A. baumannii; Table 8): >400.0 µM | MIC K. pneumoniae (K. pneumoniae; Table 8): >400.0 µM | MIC R. aeruginosa (P. aeruginosa; Table 8): >400.0 µM

CSCC[C@@H](C(=O)N[C@H](C(=O)N(C)[C@@H](C)C(=O)N[C@@H](CCCNC(=N)N)C(=O)N[C@@H](CCCNC(=N)N)C(=O)N[C@@H](Cc1c[nH]c2ccccc12)C(=O)N[C@@H](CC(C)C)C(=O)N[C@@H](C)C(=O)N[C@@H](CCCCN)C(=O)N[C@@H](CCCNC(=N)N)C(=O)NCC(=O)N[C@@H](CC(C)C)C(N)=O)[C@@H](C)O)N(C)C(=O)[C@@H]1CCCN1C(=O)[C@H](CCCNC(=N)N)NC(C)=O [compound 216] (Ac-RP[NMeM]T[NMeA]RRWLAKRGL-NH2)
MIC E. coli BW25113 (E. coli BW25113; BW25113): 100.0 µM (≈ 178 µg/mL) | MIC A. baumannii (A. baumannii): >400.0 µM | MIC K. pneumoniae (K. pneumoniae): >400.0 µM | MIC R. aeruginosa (P. aeruginosa): >400.0 µM

Ac-RPMTMRRFLEKWGL-NH2 [compound 206]
MIC E. coli BW25113 (E. coli BW25113; Table 8): 200.0 µM | MIC A. baumannii (A. baumannii; Table 8): 200.0 µM | MIC K. pneumoniae (K. pneumoniae; Table 8): 200.0 µM | MIC R. aeruginosa (P. aeruginosa; Table 8): 200.0 µM

CSCC[C@H](NC(=O)[C@@H]1CCCN1C(=O)[C@H](Cc1ccc(O)cc1)NC(C)=O)C(=O)N[C@@H](CN)C(=O)N[C@@H](C)C(=O)N[C@@H](CCCNC(=N)N)C(=O)N[C@@H](CCCNC(=N)N)C(=O)N[C@@H](Cc1ccc(-c2ccccc2)cc1)C(=O)N[C@@H](CC(C)C)C(=O)N[C@@H](CCC(=O)O)C(=O)N[C@@H](CCCCN)C(=O)N[C@@H](Cc1c[nH]c2ccccc12)C(=O)NCC(=O)N[C@@H](CC(C)C)C(=O)N[C@@H](CC(C)C)C(=O)N[C@@H](CCCNC(=N)N)C(N)=O [compound 80] (Ac-YPM[Dap]ARR[Bip]LEKWGLLR-NH2)
MIC E. coli BW25113 (E. coli BW25113; Table 8): 12.5 µM (≈ 26.7 µg/mL) | MIC A. baumannii (A. baumannii; Table 8): 12.5 µM (≈ 26.7 µg/mL) | MIC K. pneumoniae (K. pneumoniae; Table 8): 12.5 µM (≈ 26.7 µg/mL) | MIC R. aeruginosa (P. aeruginosa; Table 8): 25.0 µM (≈ 53.5 µg/mL)

CSCC[C@H](NC(=O)[C@H](CN)NC(=O)[C@H](CCSC)NC(=O)[C@@H]1CCCN1C(=O)[C@H](Cc1ccc(O)cc1)NC(C)=O)C(=O)N[C@@H](CCCNC(=N)N)C(=O)N[C@@H](CCCNC(=N)N)C(=O)N[C@@H](Cc1c[nH]c2ccccc12)C(=O)N[C@@H](CC(C)C)C(=O)N[C@@H](CCC(=O)O)C(=O)N[C@@H](CCCCN)C(=O)N[C@@H](Cc1c[nH]c2ccccc12)C(=O)NCC(=O)N[C@@H](CC(C)C)C(=O)N[C@@H](CC(C)C)C(=O)N[C@@H](CCCNC(=N)N)C(N)=O [compound 89] (Ac-YPM[Dap]MRRWLEKWGLLR-NH2)
MIC E. coli BW25113 (E. coli BW25113; BW25113): 25.0 µM (≈ 54.1 µg/mL) | MIC A. baumannii (A. baumannii): 25.0 µM (≈ 54.1 µg/mL) | MIC K. pneumoniae (K. pneumoniae): 25.0 µM (≈ 54.1 µg/mL) | MIC R. aeruginosa (P. aeruginosa): 100.0 µM (≈ 216 µg/mL)

Ac-RPMTARRWLAKRGL-NH2 [compound 201]
MIC E. coli BW25113 (E. coli BW25113; BW25113): 25.0 µM | MIC A. baumannii (A. baumannii): >400.0 µM | MIC K. pneumoniae (K. pneumoniae): >400.0 µM | MIC R. aeruginosa (P. aeruginosa): >400.0 µM

Ac-YPMTARRFLEHHGL-NH2 [compound 40]
MIC E. coli imp4213 (E. coli imp4213): 400 µM | MIC S. aureus USA300 (S. aureus USA300): >800 µM

CSCC[C@H](NC(=O)[C@@H]1CCCN1C(=O)[C@H](Cc1ccc(O)cc1)NC(C)=O)C(=O)N[C@H](C(=O)N[C@@H](C)C(=O)N[C@@H](CCCNC(=N)N)C(=O)N[C@@H](CCCNC(=N)N)C(=O)N[C@@H](Cc1ccccc1)C(=O)N[C@@H](CC(C)C)C(=O)N[C@@H](CCO)C(=O)N[C@@H](CCCCN)C(=O)N[C@@H](Cc1c[nH]c2ccccc12)C(=O)NCC(=O)N[C@@H](CC(C)C)C(=O)N[C@@H](CC(C)C)C(=O)N[C@@H](CCCNC(=N)N)C(N)=O)[C@@H](C)O [compound 85] (Ac-YPMTARRFL[hSer]KWGLLR-NH2)
MIC E. coli BW25113 (E. coli BW25113; Table 8): 200.0 µM (≈ 410 µg/mL) | MIC A. baumannii (A. baumannii; Table 8): 100.0 µM (≈ 205 µg/mL) | MIC K. pneumoniae (K. pneumoniae; Table 8): 200.0 µM (≈ 410 µg/mL) | MIC R. aeruginosa (P. aeruginosa; Table 8): 200.0 µM (≈ 410 µg/mL)

Ac-YPMTRRRFLEKHGL-NH2 [compound 29]
MIC E. coli imp4213 (E. coli imp4213): 800 µM | MIC S. aureus USA300 (S. aureus USA300): >800 µM

Ac-YPMTARRFLSKHGL-NH2 [compound 37]
MIC E. coli imp4213 (E. coli imp4213): 400 µM | MIC S. aureus USA300 (S. aureus USA300): >800 µM

Ac-YPMTARRFLEKWGLLR-NH2 [compound 14]
MIC E. coli imp4213 (E. coli imp4213): 25 µM | MIC S. aureus USA300 (S. aureus USA300): 800 µM

Ac-FPMTARRFLEKHGL-NH2 [compound 17]
MIC E. coli imp4213 (E. coli imp4213): 200 µM | MIC S. aureus USA300 (S. aureus USA300): >800 µM

Ac-YPMTARRFLEKRGL-NH2 [compound 45]
MIC E. coli imp4213 (E. coli imp4213): 100 µM | MIC S. aureus USA300 (S. aureus USA300): >800 µM

Ac-APMTARRFLEKHGL-NH2 [compound 16]
MIC E. coli imp4213 (E. coli imp4213): 100 µM | MIC S. aureus USA300 (S. aureus USA300): >800 µM

Ac-YPMTARRFLERHGL-NH2 [compound 41]
MIC E. coli imp4213 (E. coli imp4213): 100 µM | MIC S. aureus USA300 (S. aureus USA300): >800 µM

Ac-YPMTYRRFLEKHGL-NH2 [compound 27]
MIC E. coli imp4213 (E. coli imp4213): 400 µM | MIC S. aureus USA300 (S. aureus USA300): >800 µM
